Measurements taken from patent US20140228303A1, “NOVEL SGLT INHIBITORS” (Panacea Biotec Ltd, priority 2011, published 2014).

Experiments:
mouse SGLT-2 = target: T1, mouse SGLT-2 (Mus musculus, UniProt Q923I7); experiment: Methyl-α-D-[U-14C]Glucopyranoside uptake assay for SGLT-2 in CHO-K1 cells expressing mSGLT-2; assay type: cell-based; conditions: N.E. = Not Effective
T1 construct: Full-length mouse SGLT-2 cDNA was amplified from C57BL/6J mouse kidneys and introduced in the pcDNA3.1(+) expression vector; expressed in transfected cells
T1 sequence (Q923I7 1-670): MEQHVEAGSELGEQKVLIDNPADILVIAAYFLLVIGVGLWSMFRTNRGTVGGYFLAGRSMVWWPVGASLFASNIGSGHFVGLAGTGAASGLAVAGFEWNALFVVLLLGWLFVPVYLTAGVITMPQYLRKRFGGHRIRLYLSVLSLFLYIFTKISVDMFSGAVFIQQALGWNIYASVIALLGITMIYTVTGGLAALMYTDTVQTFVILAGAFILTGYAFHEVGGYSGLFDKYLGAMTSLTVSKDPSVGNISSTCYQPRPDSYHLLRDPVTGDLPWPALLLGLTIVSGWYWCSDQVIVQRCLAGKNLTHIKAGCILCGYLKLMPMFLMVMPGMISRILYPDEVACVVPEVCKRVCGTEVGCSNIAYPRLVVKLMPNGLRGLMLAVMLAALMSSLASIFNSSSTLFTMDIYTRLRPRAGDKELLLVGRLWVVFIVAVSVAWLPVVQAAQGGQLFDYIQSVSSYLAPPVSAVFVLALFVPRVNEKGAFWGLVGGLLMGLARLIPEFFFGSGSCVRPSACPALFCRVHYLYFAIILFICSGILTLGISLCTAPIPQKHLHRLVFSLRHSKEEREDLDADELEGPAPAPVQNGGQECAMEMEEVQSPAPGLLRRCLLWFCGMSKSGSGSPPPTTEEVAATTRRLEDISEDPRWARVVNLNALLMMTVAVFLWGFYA
Description: Preparation of Mouse SGLT-2 Expressing Cells
Full-length mouse SGLT-2 cDNA was amplified from C57BL/6J mouse kidneys and introduced in the pcDNA3.1(+) expression vector (Invitrogen, Inc.) and propagated in Escherichia coli strain DH5α using Luria-Bertani (LB) medium containing ampicillin. […] Stably transfected cells were selected using G418 antibiotic selection pressure.
Methyl-α-D-[U-^14C]Glucopyranoside Uptake Assay for SGLT-2
(§1) Cells expressing mSGLT-2 were seeded on 96-well tissue culture plates (Greiner, Inc.) in RPMI containing 10% FBS and 400 μg/mL G418 (0.8×10^5 cells per well in 200 μL medium) and incubated at 37° C. under 5% carbon dioxide for 24 h prior to the assay. Cells were washed twice with 200 μL of either sodium buffer (140 mM NaCl, 4.7 mM KCl, 2.2 mM CaCl2, 1.2 mM MgCl2, 10 mM Tris/Hepes, pH 7.4) or sodium-free buffer (137 mM N-methyl-glucamine, 4.7 mM KCl, 2.2 mM CaCl2, 1.2 mM MgCl2, 10 mM Tris/Hepes, pH 7.4). Reaction mixture containing test compounds at different concentrations diluted in assay buffer, 0.1 mM unlabeled Methyl-α-D-glucopyranoside and 1 μCi/well methyl-α-D[U-^14C]glucopyranoside (American Radiochemicals) was added per well of a 96-well plate and incubated at 37° C. for 1 h. Cells were washed thrice with 200 μL of wash buffer (140 mM NaCl, 4.7 mM KCl, 2.2 mM CaCl2, 1.2 mM MgCl2, 10 mM Tris/Hepes, pH 7.4 containing 500 μM phlorizin) and lysed using 50 μL of 0.25N NaOH. Methyl-α-D[U-^14C]glucopyranoside uptake was quantitated using a Top count scintillation counter (PerkinElmer, Inc.). All the test compounds were assayed in triplicates.

human SGLT-1 = target: T2, human SGLT-1 (Homo sapiens, UniProt P13866); experiment: Methyl-α-D-[U-14C]Glucopyranoside uptake assay for SGLT-1 in CHO-K1 cells expressing hSGLT-1; assay type: cell-based; conditions: N.E. = Not Effective
T2 construct: Full-length human SGLT-1 cDNA in the pCMV-XL-Neo expression vector was obtained from Origene Corporation
T2 sequence (P13866 1-664): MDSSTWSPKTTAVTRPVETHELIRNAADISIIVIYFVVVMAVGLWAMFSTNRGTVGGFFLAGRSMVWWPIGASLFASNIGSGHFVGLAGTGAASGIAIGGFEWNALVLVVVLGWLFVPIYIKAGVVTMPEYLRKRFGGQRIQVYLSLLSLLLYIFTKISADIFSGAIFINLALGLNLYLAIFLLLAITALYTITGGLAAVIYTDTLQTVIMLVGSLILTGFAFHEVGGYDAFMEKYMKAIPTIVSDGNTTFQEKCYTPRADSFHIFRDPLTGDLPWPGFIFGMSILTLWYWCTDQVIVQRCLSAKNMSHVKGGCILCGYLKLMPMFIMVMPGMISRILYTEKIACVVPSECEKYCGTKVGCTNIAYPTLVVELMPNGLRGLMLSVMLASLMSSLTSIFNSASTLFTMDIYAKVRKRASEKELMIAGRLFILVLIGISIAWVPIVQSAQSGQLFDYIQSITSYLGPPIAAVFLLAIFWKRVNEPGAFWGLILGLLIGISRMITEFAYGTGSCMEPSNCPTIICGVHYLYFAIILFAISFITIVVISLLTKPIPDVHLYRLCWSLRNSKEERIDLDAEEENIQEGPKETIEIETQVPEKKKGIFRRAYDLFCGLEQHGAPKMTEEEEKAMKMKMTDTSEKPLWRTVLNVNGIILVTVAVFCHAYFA
Description: Preparation of Human SGLT-1 Expressing Cells
Full-length human SGLT-1 cDNA in the pCMV-XL-Neo expression vector was obtained from Origene Corporation and propagated in Escherichia coli strain DH5α using Luria-Bertani (LB) medium containing ampicillin. […] Stably transfected cells were selected using G418 antibiotic selection pressure.
Methyl-α-D-[U-^14C]Glucopyranoside Uptake Assay for SGLT-1
as §1, with “hSGLT-1” for “mSGLT-2”, “800 μg/ml” for “400 μg/mL”, “compounds” for “compounds at different concentrations”, “1” for “0.1”, “methyl-α-D-[U-^14C]glucopyranoside” for “methyl-α-D[U-^14C]glucopyranoside”, “Methyl-α-D-[U-^14C]glucopyranoside” for “Methyl-α-D[U-^14C]glucopyranoside”

C57BL/6J mice = experiment: Estimation of urinary glucose in C57BL/6J mice; assay type: in vivo, mouse; conditions: urine collected over 24 h
Description: Estimation of Urinary Glucose in C57BL/6J Mice
C57BL/6J mice were fasted 4 h before drug treatment. Fasted mice were weighed and randomized into different groups based on their body weight (n=6). At time T0 test compounds and standard compounds suspended in 0.25% CMC or PEG 400 formulation, were administered to respective groups and kept in metabolic cages (6 mice/cage) after dosing. Animals were fed after drug administration and urine was collected over a period of 24 h. Urinary volume was measured and urinary glucose was estimated using Merckotest Glucose Reagent (Merck Specialities Pvt. Ltd., India).

Rats = experiment: Estimation of urinary glucose in rat; assay type: in vivo; conditions: urine collected over 24 hrs
Description: Estimation of Urinary Glucose in Rat
Rats were fasted overnight (14 hrs) before drug treatment. Fasted rats were weighed and randomized into different groups based on their body weight (n=4). At time To test compounds and standard compound suspended in 0.25% C.M.C. or PEG 400 formulation were administered to respective groups and kept the animals in metabolic cages (1 rat/cage) after dosing. Animals were fed after drug administration and urine was collected over a period of 24 hrs. Urine volume was measured and urinary glucose was estimated using Merckotest Glucose Reagent (Merck Specialities Pvt. Ltd., India).

| Substance | % inhibition of Methyl-α-D-[U-14C] Glucopyranoside uptake (CHO-K1 cells) mediated by SGLT-2 (mouse SGLT-2; 0.1 nM compound) | % inhibition of Methyl-α-D-[U-14C] Glucopyranoside uptake (CHO-K1 cells) mediated by SGLT-2 (mouse SGLT-2; 1 nM compound) | % inhibition of Methyl-α-D-[U-14C] Glucopyranoside uptake (CHO-K1 cells) mediated by SGLT-2 (mouse SGLT-2; 10 nM compound) | % inhibition of Methyl-α-D-[U-14C] Glucopyranoside uptake (CHO-K1 cells) mediated by SGLT-2 (mouse SGLT-2; 100 nM compound) | % inhibition of Methyl-α-D-[U-14C] Glucopyranoside uptake (CHO-K1 cells) mediated by SGLT-1 (human SGLT-1; 100 nM compound) | % inhibition of Methyl-α-D-[U-14C] Glucopyranoside uptake (CHO-K1 cells) mediated by SGLT-1 (human SGLT-1; 1 μM compound) | % inhibition of Methyl-α-D-[U-14C] Glucopyranoside uptake (CHO-K1 cells) mediated by SGLT-1 (human SGLT-1; 10 μM compound) | UGE in mice (in mg/g of feed consumed) at 3 mpk (C57BL/6J mice) | UGE in rat (in mg/g of feed consumed) at 3 mpk (Rats) |
| --- | --- | --- | --- | --- | --- | --- | --- | --- | --- |
| 1-(4-(2-chloro-5-((2S,3R,4R,5S,6R)-3,4,5-trihydroxy-6-(hydroxymethyl)tetrahydro-2H-pyran-2-yl)benzyl)phenyl)ethanone O-methyl oxime [Compound 2] | 16.73% | 26.19% | 73.13% | 92.85% | N.E. | 33.10% | 78.87% | 88.9 mg/g of feed consumed | 68.6 mg/g of feed consumed |
| 1-(4-(2-chloro-5-((2S,3R,4R,5S,6R)-3,4,5-trihydroxy-6-(hydroxymethyl)tetrahydro-2H-pyran-2-yl)benzyl)phenyl)ethanone O-ethyl oxime [Compound 6] | 44.05% | 45.09% | 62.06% | 89.78% | N.E. | 22.68% | 60.02% | 78.1 mg/g of feed consumed |  |
| 1-(4-(2-chloro-5-((2S,3R,4R,5S,6S)-3,4,5-trihydroxy-6-methoxy tetrahydro-2H-pyran-2-yl)benzyl)phenyl)ethanone O-ethyl oxime [Compound 5] | 23.91% | 45.81% | 50.06% | 91.98% | N.E. | N.E. | 49.74% | 81.7 mg/g of feed consumed |  |

Further lines, with some results ahead:

| % inhibition of Methyl-α-D-[U-14C] Glucopyranoside uptake (CHO-K1 cells) mediated by SGLT-2 (mouse SGLT-2; 0.1 nM compound) | % inhibition of Methyl-α-D-[U-14C] Glucopyranoside uptake (CHO-K1 cells) mediated by SGLT-2 (mouse SGLT-2; 1 nM compound) | % inhibition of Methyl-α-D-[U-14C] Glucopyranoside uptake (CHO-K1 cells) mediated by SGLT-2 (mouse SGLT-2; 10 nM compound) | % inhibition of Methyl-α-D-[U-14C] Glucopyranoside uptake (CHO-K1 cells) mediated by SGLT-2 (mouse SGLT-2; 100 nM compound) | % inhibition of Methyl-α-D-[U-14C] Glucopyranoside uptake (CHO-K1 cells) mediated by SGLT-1 (human SGLT-1; 100 nM compound) | % inhibition of Methyl-α-D-[U-14C] Glucopyranoside uptake (CHO-K1 cells) mediated by SGLT-1 (human SGLT-1; 1 μM compound) | % inhibition of Methyl-α-D-[U-14C] Glucopyranoside uptake (CHO-K1 cells) mediated by SGLT-1 (human SGLT-1; 10 μM compound) | Substance | UGE in mice (in mg/g of feed consumed) at 3 mpk (C57BL/6J mice) | UGE in rat (in mg/g of feed consumed) at 3 mpk (Rats) |
| --- | --- | --- | --- | --- | --- | --- | --- | --- | --- |
| N.E. | 25.35% | 72.44% | 90.93% | 20.63% | 55.66% | 88.57% | 1-(4-(2-chloro-5-((1S,2S,3S,4R,5S)-2,3,4-trihydroxy-1-(hydroxymethyl)-6,8-dioxabicyclo[3.2.1]octan-5-yl)benzyl)phenyl)ethanone O-ethyl oxime [Compound 8] | 60.6 mg/g of feed consumed |  |
| 44.36% | 48.64% | 42.26% | 74.40% | N.E. | N.E. | 56.97% | 1-(4-(2-chloro-5-((2S,3R,4R,5S,6R)-3,4,5-trihydroxy-6-(hydroxymethyl)tetrahydro-2H-pyran-2-yl)benzyl)phenyl)-propan-1-one O-methyl oxime [Compound 7] | 78.4 mg/g of feed consumed |  |
